Consider 17 compounds from patent US10947252B2, “Inhibitors of KEAP1-Nrf2 protein-protein interaction” (Janssen Pharmaceutica NV, priority 2018, dated 2021).

Assay [1] has as its system Glo-Response ARE-luc2P HEK293 cell line. Kind of assay: ARE luciferase reporter cell-based assay.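 Also: luciferase signal tracks Nrf2 activation of the ARE once compounds disrupt KEAP1-Nrf2 binding, read with One-Glo reagent, DMSO serving as low control.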 As to conditions: average of results obtained.
Assay [2] concerns the target Kelch domain of human KEAP1 (321-624 aa) (Homo sapiens (Human), UniProt Q14145). Nature of the assay: KEAP1 KELCH ThermoFluor binding assay.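 Also: Ligand-induced melting temperature shift of E. coli-expressed KEAP1 Kelch protein, Kd estimated from concentration-response curves of ΔTm.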 To be noted: KEAP Kelch […], 1,8-ANS, pH 7.0, average of results obtained, read-out: Tf Kd.

Kelch domain of human KEAP1 (321-624 aa), sequence (Q14145 321-624): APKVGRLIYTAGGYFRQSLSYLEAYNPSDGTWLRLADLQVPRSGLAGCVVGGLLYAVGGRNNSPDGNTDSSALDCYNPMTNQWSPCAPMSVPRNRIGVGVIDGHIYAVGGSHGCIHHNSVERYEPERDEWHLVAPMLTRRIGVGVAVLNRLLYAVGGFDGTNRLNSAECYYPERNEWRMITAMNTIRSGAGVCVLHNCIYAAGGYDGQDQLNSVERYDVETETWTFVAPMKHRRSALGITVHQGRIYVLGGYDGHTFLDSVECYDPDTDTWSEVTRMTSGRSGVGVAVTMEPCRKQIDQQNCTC

`Cc1ccc([C@H](c2ccn3c(C(F)F)nnc3c2C)C(C)(C)C(=O)O)nc1CN1CC2(COC2)Oc2ncccc2S1(=O)=O` (single isomer, unassigned) [Example 611, (*R)-3-(3-(Difluoromethyl)-8-methyl-[1,2,4]triazolo[4,3-a]pyridin-7-yl)-3-(6-((1′,1′-dioxidospiro[oxetane-3,4′-pyrido[2,3-b][1,4,5]oxathiazepin]-2′(3′H)-yl)methyl)-5-methylpyridin-2-yl)-2,2-dimethylpropanoic Acid] registered an EC50 in assay [1] (Homo sapiens, HEK293, 24 h) of 0.574 µM. Further, the Kd in assay [2] worked out at 12.8 µM.

In assay [1] (Homo sapiens, HEK293, 24 h), `Cc1ccc([C@H](CC(=O)O)c2cc(OC3CC3)c3c(c2)nnn3C)cc1CN1C[C@H]2CCCN2c2ncccc2S1(=O)=O` (single isomer, unassigned) [Example 5, (*S)-3-(7-Cyclopropoxy-1-methyl-1H-benzo[d][1,2,3]triazol-5-yl)-3-(3-(((R)-5,5-dioxido-7a,8,9,10-tetrahydropyrido[2,3-f]pyrrolo[2,1-d][1,2,5]thiadiazepin-6(7H)-yl)methyl)-4-methylphenyl)propanoic Acid] displayed an EC50 of 0.11 µM. Also, in assay [2], the Kd was 0.000518 µM.

In assay [1] (Homo sapiens, HEK293, 24 h), `Cc1cnc2c(c1)S(=O)(=O)N(Cc1cc(C(c3ccn4c(C(F)(F)F)nnc4c3C)C(C)(C)C(=O)O)ncc1C)CC1(CC1)O2` (racemic) [Example 587, (R/S)-2,2-Dimethyl-3-(8-methyl-3-(trifluoromethyl)-[1,2,4]triazolo[4,3-a]pyridin-7-yl)-3-(5-methyl-4-((8′-methyl-1′,1′-dioxidospiro[cyclopropane-1,4′-pyrido[2,3-b][1,4,5]oxathiazepin]-2′(3′H)-yl)methyl)pyridin-2-yl)propanoic Acid] had an EC50 of 0.0174 µM. Also, in assay [2], the Kd was less than 0.001 µM.

`Cc1cnc2c(c1)S(=O)(=O)N(Cc1cc([C@@H](c3ccn4c(C(F)(F)F)nnc4c3C)C(C)(C)C(=O)O)ncc1C)CC1(CCOCC1)O2` (single isomer, unassigned) [Example 591, (*S)-2,2-Dimethyl-3-(8-methyl-3-(trifluoromethyl)-[1,2,4]triazolo[4,3-a]pyridin-7-yl)-3-(5-methyl-4-((8′-methyl-1′,1′-dioxido-2,3,5,6-tetrahydrospiro[pyran-4,4′-pyrido[2,3-b][1,4,5]oxathiazepin]-2′(3′H)-yl)methyl)pyridin-2-yl)propanoic Acid] had an EC50 in assay [1] (Homo sapiens, HEK293, 24 h) of 0.0261 µM. Moreover, the Kd in assay [2] is less than 0.001 µM.

For the compound `Cc1ccc([C@H](CC(=O)O)c2ccc3c(nnn3CC3CC3)c2C)cc1CN1C[C@H]2CCCCN2c2ncccc2S1(=O)=O` (single isomer, unassigned) [Example 236, (*S)-3-(1-(Cyclopropylmethyl)-4-methyl-1H-benzo[d][1,2,3]triazol-5-yl)-3-(3-(((*R)-5,5-dioxido-7,7a,8,9,10,11-hexahydro-6H-dipyrido[2,1-d:2′,3′-f][1,2,5]thiadiazepin-6-yl)methyl)-4-methylphenyl)propanoic Acid], in assay [1] (Homo sapiens, HEK293, 24 h), the midpoint of the response, the EC50, lay at 0.0068 µM. The Kd in assay [2] was less than 0.001 µM.

As for `Cc1cc2cc([C@@H](CC(=O)O)c3ccc(C)c(CN4C[C@@H]5CCCCN5c5ncccc5S4(=O)=O)c3)n(C)c2nn1` (single isomer, unassigned) [Example 441, (*S)-3-(3,7-Dimethyl-7H-pyrrolo[2,3-c]pyridazin-6-yl)-3-(3-(((*S)-5,5-dioxido-7,7a,8,9,10,11-hexahydro-6H-dipyrido[2,1-d:2′,3′-f][1,2,5]thiadiazepin-6-yl)methyl)-4-methylphenyl)propanoic Acid], in assay [1] (Homo sapiens, HEK293, 24 h), the EC50 is more than 20 µM. Besides, the Kd in assay [2] is 0.0603 µM.

`Cc1ccc([C@H](CC(=O)O)c2ccn3c(C(F)(F)F)nnc3c2C)cc1CN1CC2(CC2)Oc2nc(NCCN3CCCCC3)ccc2S1(=O)=O` (single isomer, unassigned) [Example 112, (*S)-3-(3-((1′,1′-Dioxido-7′-((2-(piperidin-1-yl)ethyl)amino)spiro[cyclopropane-1,4′-pyrido[2,3-b][1,4,5]oxathiazepin]-2′(3′H)-yl)methyl)-4-methylphenyl)-3-(8-methyl-3-(trifluoromethyl)-[1,2,4[triazolo[4,3-a]pyridine-7-yl)propanoic Acid]: in assay [1] (Homo sapiens, HEK293, 24 h), a half-maximal response (EC50) required 1.31 µM. For the same compound, the Kd in assay [2] was less than 0.001 µM.

Compound `Cc1ccc([C@H](CC(=O)O)c2ccc3c(nnn3CC3CC3)c2C(F)F)cc1CN1C[C@H]2CCCCN2c2ncccc2S1(=O)=O` (single isomer, unassigned) [Example 170, (*S)-3-(1-(Cyclopropylmethyl)-4-(difluoromethyl)-1H-benzo[d][1,2,3]triazol-5-yl)-3-(3-(((*R)-5,5-dioxido-7,7a,8,9,10,11-hexahydro-6H-dipyrido[2,1-d:2′,3′-f][1,2,5]thiadiazepin-6-yl)methyl)-4-methylphenyl)propanoic Acid] returned an EC50 in assay [1] (Homo sapiens, HEK293, 24 h) of 0.11 µM. For the same compound, in assay [2], the Kd is less than 0.001 µM.

Consider `Cc1cnc2c(c1)S(=O)(=O)N(Cc1cc([C@H](c3ccn4c(C(F)(F)F)nnc4c3C)C(C)(C)C(=O)O)ccc1C)CC1(CCOCC1)O2` (single isomer, unassigned) [Example 408, (*R)-2,2-dimethyl-3-(4-methyl-3-((8′-methyl-1′,1′-dioxido-2,3,5,6-tetrahydrospiro[pyran-4,4′-pyrido[2,3-b][1,4,5]oxathiazepin]-2′(3′H)-yl)methyl)phenyl)-3-(8-methyl-3-(trifluoromethyl)-[1,2,4]triazolo[4,3-a]pyridin-7-yl)propanoic Acid], for which the response in assay [1] (24 hours) was half-maximal at 0.79 µM (EC50). Moreover, the Kd in assay [2] is 1.28 µM.

In turn, `Cc1ccc([C@@H](CC(=O)O)c2cc(OC3CC3)c3c(c2)nnn3C)cc1CN1C[C@H]2CCCCN2c2ncccc2S1(=O)=O` (single isomer, unassigned) [Example 404, (*R)-3-(7-Cyclopropoxy-1-methyl-1H-benzo[d][1,2,3]triazol-5-yl)-3-(3-(((*R)-5,5-dioxido-7,7a,8,9,10,11-hexahydro-6H-dipyrido[2,1-d:2′,3′-f][1,2,5]thiadiazepin-6-yl)methyl)-4-methylphenyl)propanoic Acid] came in with an EC50 in assay [1] (Homo sapiens, HEK293, 24 h) of 0.0196 µM. For the same compound, the Kd in assay [2] was less than 0.001 µM.

Turning to `Cc1cnc2c(c1)S(=O)(=O)N(Cc1cc([C@H](c3ccn4c(C(F)(F)F)nnc4c3C)C(C)(C)C(=O)O)ccc1C)C[C@@]1(CCOC1)O2` (single isomer, unassigned) [Example 388, (*R)-2,2-Dimethyl-3-(4-methyl-3-(((*R)-8′-methyl-1′,1′-dioxido-4,5-dihydro-2H-spiro[furan-3,4′-pyrido[2,3-b][1,4,5]oxathiazepin]-2′(3′H)-yl)methyl)phenyl)-3-(8-methyl-3-(trifluoromethyl)-[1,2,4]triazolo[4,3-a]pyridin-7-yl)propanoic Acid], the EC50 in assay [1] (Homo sapiens, HEK293, 24 h) was 0.001 µM. Besides, in assay [2], the Kd is less than 0.001 µM.

In the case of `Cc1ccc([C@H](c2cc(C)n3c(C(F)(F)F)nnc3c2C)C(C)C(=O)O)cc1CN1C[C@@H]2CCCCN2c2ncccc2S1(=O)=O` (relative stereo) [Example 133, (3*R)-3-(5,8-Dimethyl-3)-(trifluoromethyl)-[1,2,4-triazolo[4,3-a]pyridine-7-yl)-3-(3-(((*S)-5,5-dioxido-7,7a,8,9,10,11-hexahydro-6H-dipyrido[2,1-d:2′,3′-f][1,2,5]thiadiazepin-6-yl)methyl)-4-methylphenyl)-2-methylpropanoic Acid], a half-maximal effect in assay [1] (Homo sapiens, HEK293, 24 h) (EC50) was put at 0.002 µM. Besides, in assay [2], the Kd was less than 0.001 µM.

In assay [1] (Homo sapiens, HEK293, 24 h), `Cc1ncc([C@H](c2ccc3c(nnn3C3CC3)c2C)C(C)(C)C(=O)O)cc1CN1CC2(COC2)Oc2ncccc2S1(=O)=O` (single isomer, unassigned) [Example 612, (*S)-3-(1-Cyclopropyl-4-methyl-1H-benzo[d][1,2,3]triazol-5-yl)-3-(5-((1′,1′-dioxidospiro[oxetane-3,4′-pyrido[2,3-b][1,4,5]oxathiazepin]-2′(3′H)-yl)methyl)-6-methylpyridin-3-yl)-2,2-dimethylpropanoic Acid] registered an EC50 of 19.9 µM. The Kd in assay [2] was found to be 61.5 µM.

In assay [1] (Homo sapiens, HEK293, 24 h), `Cc1ccc([C@H](CC(=O)O)c2ccn3c(C(F)F)nnc3c2C)cc1CN1CC2(CC2)Oc2ncc(F)cc2S1(=O)=O` (single isomer, unassigned) [Example 527, (*S)-3-(3-(Difluoromethyl)-8-methyl-[1,2,4]triazolo[4,3-a]pyridin-7-yl)-3-(3-((8′-fluoro-1′,1′-dioxidospiro[cyclopropane-1,4′-pyrido[2,3-b][1,4,5]oxathiazepin]-2′(3′H)-yl)methyl)-4-methylphenyl)propanoic Acid] came in with an EC50 of 0.0222 µM. Besides, the Kd in assay [2] was less than 0.001 µM.

As to `Cc1ccc([C@@H](c2ccn3c(C(F)(F)F)nnc3c2C)C(C)(C)C(=O)O)cc1CN1CC2(COC2)Oc2ncccc2S1(=O)=O` (single isomer, unassigned) [Example 615, (*S)-3-(3-((1′,1′-dioxidospiro[oxetane-3,4′-pyrido[2,3-b][1,4,5]oxathiazepin]-2′(3′H)-yl)methyl)-4-methylphenyl)-2,2-dimethyl-3-(8-methyl-3-(trifluoromethyl)-[1,2,4]triazolo[4,3-a]pyridine-7-yl)propanoic Acid], in assay [1] (Homo sapiens, HEK293, 24 h), a half-maximal effect (EC50) was put at 0.00109 µM. Also, the Kd in assay [2] was less than 0.001 µM.

Compound `Cc1ccc([C@H](CC(=O)O)c2ccn3c(C(F)F)nnc3c2C)cc1CN1CC2(CCOCC2)Oc2ncc(F)cc2S1(=O)=O` (single isomer, unassigned) [Example 533, (*S)-3-(3-(Difluoromethyl)-8-methyl-[1,2,4]triazolo[4,3-a]pyridin-7-yl)-3-(3-((8′-fluoro-1′,1′-dioxido-2,3,5,6-tetrahydrospiro[pyran-4,4′-pyrido[2,3-b][1,4,5]oxathiazepin]-2′(3′H)-yl)methyl)-4-methylphenyl)propanoic Acid] displayed an EC50 in assay [1] (Homo sapiens, HEK293, 24 h) of 0.0313 µM. Further, the Kd in assay [2] was less than 0.001 µM.

On to `CCn1nnc2c(C)c([C@H](CC(=O)O)c3ccc(C)c(CN4C[C@H]5CCCCN5c5ncccc5S4(=O)=O)n3)ccc21` (single isomer, unassigned) [Example 305, (*S)-3-(6-(((*R)-5,5-Dioxido-7,7a,8,9,10,11-hexahydro-6H-dipyrido[2,1-d:2′,3′-][1,2,5]thiadiazepin-6-yl)methyl)-5-methylpyridin-2-yl)-3-(1-ethyl-4-methyl-1H-benzo[d][1,2,3]triazol-5-yl)propanoic Acid], for which the EC50 in assay [1] (Homo sapiens, HEK293, 24 h) worked out at 0.0017 µM. Further, the Kd in assay [2] was less than 0.001 µM.
